Assay results: the supplement of paper PMC12076712

Columns and labels:
Assay in all cases: pIC50, kinobeads binding competition
Conditions in all cases: cell material: Jurkat lysate
SYK = SYK (UniProt P43405)
UniProt Q15418 = target: UniProt Q15418
LATS1 = target: T1, LATS1 (UniProt O95835)
T1 sequence (whole entry): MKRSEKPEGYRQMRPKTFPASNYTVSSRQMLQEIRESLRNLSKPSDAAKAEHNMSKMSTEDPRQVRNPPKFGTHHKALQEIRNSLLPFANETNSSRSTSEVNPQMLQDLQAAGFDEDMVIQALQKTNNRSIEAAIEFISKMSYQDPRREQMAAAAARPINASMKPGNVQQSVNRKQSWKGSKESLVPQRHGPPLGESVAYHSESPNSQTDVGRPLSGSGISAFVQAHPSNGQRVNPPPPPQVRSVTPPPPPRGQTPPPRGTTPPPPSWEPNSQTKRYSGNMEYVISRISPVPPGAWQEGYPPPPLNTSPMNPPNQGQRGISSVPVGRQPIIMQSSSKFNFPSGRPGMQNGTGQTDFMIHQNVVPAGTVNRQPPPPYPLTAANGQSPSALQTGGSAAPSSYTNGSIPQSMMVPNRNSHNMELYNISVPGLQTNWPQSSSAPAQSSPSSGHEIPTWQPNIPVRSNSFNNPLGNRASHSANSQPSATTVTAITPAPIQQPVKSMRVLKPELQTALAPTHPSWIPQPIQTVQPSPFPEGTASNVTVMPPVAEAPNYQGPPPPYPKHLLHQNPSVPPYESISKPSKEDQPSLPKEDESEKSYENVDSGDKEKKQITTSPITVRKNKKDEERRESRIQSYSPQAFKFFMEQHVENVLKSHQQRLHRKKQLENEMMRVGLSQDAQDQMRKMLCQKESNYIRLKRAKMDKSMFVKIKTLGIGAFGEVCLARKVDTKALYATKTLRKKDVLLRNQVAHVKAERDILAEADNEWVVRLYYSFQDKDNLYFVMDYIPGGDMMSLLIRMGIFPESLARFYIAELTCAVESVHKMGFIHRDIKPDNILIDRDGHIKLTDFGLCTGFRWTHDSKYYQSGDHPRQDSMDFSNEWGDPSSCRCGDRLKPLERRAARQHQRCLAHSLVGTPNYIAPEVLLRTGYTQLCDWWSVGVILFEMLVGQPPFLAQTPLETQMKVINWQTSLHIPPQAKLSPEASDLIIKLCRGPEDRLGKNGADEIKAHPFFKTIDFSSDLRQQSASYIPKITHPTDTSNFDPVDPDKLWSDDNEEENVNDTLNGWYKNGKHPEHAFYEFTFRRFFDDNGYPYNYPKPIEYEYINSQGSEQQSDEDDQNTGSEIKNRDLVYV

SRPK1 = SRPK1 (UniProt Q96SB4)
MAPKAPK3 = MAPKAPK3 (UniProt Q16644)
MAST1 = MAST1 (UniProt Q9Y2H9)
UniProt Q8TBX8 = target: T2, UniProt Q8TBX8
T2 sequence (whole entry): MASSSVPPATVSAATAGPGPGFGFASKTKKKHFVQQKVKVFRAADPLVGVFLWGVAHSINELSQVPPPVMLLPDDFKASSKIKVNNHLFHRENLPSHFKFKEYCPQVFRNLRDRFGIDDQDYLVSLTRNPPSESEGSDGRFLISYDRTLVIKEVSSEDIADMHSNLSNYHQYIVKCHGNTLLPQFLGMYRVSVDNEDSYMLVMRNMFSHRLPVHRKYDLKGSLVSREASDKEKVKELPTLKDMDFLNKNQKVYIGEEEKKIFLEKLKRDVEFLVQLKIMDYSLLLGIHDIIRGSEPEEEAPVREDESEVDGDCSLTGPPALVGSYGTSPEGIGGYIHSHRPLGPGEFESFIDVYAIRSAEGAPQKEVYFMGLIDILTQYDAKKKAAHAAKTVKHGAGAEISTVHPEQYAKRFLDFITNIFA

DYRK2 = target: T3, DYRK2 (UniProt Q92630)
T3 sequence (whole entry): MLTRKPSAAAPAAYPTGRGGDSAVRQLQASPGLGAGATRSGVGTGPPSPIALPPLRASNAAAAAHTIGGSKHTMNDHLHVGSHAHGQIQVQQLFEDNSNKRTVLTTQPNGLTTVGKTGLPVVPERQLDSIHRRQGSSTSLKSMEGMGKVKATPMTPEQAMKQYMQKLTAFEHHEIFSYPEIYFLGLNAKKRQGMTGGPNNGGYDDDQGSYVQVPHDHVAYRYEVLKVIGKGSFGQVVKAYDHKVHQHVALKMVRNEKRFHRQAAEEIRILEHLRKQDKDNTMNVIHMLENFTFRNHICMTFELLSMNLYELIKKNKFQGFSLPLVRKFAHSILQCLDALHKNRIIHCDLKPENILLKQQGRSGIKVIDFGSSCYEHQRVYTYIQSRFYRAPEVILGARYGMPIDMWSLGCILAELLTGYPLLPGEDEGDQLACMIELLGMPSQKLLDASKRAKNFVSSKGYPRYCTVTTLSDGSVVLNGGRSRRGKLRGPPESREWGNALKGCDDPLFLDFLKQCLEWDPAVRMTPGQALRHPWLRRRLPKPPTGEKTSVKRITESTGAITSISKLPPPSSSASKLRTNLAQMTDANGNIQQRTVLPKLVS

PIP4K2A = target: T4, PIP4K2A (UniProt P48426)
T4 sequence (whole entry): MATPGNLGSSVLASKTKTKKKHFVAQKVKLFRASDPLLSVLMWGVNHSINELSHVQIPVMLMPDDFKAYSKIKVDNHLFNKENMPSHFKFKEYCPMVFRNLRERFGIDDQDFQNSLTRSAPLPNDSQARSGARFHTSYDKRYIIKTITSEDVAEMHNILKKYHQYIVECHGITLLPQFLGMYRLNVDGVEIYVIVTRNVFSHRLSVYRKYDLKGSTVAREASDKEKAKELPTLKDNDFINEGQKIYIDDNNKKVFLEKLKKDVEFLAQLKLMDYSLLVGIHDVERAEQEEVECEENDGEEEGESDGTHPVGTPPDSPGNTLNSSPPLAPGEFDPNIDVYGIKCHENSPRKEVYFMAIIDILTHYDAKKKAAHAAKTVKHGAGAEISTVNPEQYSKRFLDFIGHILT

UniProt Q8NEB9 = target: UniProt Q8NEB9
UniProt P17252 = target: UniProt P17252
UniProt Q5VT25 = target: UniProt Q5VT25
MAPK11 = MAPK11 (UniProt Q15759)
Sequence of MAPK11 (Q15759 whole entry): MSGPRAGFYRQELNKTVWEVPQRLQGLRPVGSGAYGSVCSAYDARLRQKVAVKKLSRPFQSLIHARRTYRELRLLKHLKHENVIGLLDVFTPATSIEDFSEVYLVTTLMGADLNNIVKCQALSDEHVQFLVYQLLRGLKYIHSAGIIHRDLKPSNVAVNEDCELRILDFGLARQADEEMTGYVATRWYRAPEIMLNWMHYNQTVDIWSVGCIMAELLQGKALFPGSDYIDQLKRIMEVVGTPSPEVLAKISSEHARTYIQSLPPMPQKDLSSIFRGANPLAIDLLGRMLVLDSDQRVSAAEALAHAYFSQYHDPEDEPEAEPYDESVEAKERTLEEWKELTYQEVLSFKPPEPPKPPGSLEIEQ

Sequence of UniProt Q8NEB9 (Q8NEB9 whole entry): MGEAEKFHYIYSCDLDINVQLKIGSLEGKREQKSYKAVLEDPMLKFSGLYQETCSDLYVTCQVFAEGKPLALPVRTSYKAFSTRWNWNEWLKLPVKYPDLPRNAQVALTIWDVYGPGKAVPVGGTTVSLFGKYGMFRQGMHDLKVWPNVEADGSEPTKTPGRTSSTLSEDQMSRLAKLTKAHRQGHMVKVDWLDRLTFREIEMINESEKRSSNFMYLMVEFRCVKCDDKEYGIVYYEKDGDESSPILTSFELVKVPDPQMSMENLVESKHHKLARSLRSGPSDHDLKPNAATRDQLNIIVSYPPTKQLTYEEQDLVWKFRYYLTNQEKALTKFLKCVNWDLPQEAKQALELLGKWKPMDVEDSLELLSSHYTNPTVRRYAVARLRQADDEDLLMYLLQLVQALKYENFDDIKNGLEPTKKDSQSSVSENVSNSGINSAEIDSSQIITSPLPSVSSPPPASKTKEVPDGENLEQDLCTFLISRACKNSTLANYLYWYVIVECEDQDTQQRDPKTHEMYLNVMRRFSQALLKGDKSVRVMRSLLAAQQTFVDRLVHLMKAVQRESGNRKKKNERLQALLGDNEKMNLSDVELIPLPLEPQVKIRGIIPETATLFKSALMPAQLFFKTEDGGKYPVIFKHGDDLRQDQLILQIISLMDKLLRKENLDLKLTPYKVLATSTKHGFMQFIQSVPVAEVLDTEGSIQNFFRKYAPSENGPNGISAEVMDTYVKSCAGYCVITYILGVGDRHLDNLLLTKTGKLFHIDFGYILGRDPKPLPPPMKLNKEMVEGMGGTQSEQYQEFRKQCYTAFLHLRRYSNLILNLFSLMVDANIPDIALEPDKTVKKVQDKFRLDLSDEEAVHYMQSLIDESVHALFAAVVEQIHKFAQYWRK
Sequence of UniProt Q15418 (Q15418 whole entry): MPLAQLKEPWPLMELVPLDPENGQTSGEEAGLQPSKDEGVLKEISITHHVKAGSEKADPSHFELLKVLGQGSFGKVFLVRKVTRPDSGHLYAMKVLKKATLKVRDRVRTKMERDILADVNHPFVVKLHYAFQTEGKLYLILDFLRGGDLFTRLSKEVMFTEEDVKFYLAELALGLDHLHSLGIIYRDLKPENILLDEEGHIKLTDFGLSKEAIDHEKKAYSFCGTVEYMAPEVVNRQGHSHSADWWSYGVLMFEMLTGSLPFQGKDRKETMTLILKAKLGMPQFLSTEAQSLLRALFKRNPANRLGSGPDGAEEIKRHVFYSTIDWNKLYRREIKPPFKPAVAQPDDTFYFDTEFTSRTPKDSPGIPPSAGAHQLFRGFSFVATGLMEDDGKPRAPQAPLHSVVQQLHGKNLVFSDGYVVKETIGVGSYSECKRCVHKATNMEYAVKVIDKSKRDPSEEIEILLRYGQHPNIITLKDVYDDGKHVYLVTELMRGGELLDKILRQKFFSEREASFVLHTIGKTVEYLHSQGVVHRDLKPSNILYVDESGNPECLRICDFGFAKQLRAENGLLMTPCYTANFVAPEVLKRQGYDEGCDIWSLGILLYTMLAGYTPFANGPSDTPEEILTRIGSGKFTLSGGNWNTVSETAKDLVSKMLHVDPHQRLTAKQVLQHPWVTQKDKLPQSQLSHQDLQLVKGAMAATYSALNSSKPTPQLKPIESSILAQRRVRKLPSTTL
Sequence of MAPKAPK3 (Q16644 whole entry, looked up): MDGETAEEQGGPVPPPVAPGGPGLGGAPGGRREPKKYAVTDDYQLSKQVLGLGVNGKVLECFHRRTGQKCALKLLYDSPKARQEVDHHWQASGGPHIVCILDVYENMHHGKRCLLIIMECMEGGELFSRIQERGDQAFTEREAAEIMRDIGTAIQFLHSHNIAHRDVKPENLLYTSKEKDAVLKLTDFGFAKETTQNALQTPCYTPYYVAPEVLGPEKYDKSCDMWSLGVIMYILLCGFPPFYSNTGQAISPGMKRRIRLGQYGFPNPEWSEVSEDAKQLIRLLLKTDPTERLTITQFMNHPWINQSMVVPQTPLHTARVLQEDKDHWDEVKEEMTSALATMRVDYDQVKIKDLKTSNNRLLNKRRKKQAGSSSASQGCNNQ
Sequence of SRPK1 (Q96SB4 whole entry): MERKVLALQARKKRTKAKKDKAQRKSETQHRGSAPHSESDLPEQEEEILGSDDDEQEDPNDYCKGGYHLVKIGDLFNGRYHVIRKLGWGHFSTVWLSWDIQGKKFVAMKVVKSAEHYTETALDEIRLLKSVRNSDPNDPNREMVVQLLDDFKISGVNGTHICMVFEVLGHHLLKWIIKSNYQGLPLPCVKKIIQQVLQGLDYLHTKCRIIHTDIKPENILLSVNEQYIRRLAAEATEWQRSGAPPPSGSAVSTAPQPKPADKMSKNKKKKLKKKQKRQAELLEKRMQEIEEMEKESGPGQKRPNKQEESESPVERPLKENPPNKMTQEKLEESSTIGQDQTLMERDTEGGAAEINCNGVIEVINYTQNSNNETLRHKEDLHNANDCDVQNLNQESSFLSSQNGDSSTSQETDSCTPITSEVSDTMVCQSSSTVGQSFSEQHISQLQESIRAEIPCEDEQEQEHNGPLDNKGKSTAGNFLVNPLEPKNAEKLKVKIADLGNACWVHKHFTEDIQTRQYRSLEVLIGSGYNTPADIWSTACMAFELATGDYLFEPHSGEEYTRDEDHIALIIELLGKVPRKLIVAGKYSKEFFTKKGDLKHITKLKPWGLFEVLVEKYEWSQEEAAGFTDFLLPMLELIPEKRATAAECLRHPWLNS

- pIC50 (SYK): < 4.52
- pIC50 (UniProt Q15418): < 4.52
- pIC50 (LATS1): < 4.52
- pIC50 (SRPK1): < 4.52
- pIC50 (MAPKAPK3): 6.8
- pIC50 (MAST1): < 4.52
- pIC50 (UniProt Q8TBX8): < 4.52
- pIC50 (DYRK2): < 4.52
- pIC50 (PIP4K2A): < 4.52
- pIC50 (UniProt Q8NEB9): < 4.52
- pIC50 (UniProt P17252): < 4.52
- pIC50 (UniProt Q5VT25): < 4.52
- pIC50 (MAPK11): < 4.52
SMILES: CCc1cnn2c(NCc3ccc[n+]([O-])c3)cc(N3CCCC[C@H]3CCO)nc12 [dinaciclib]
